# Species on record: Rattus norvegicus
# Test: Open TG-GATES - Regimen: Daily Repeat
# Format: toxicity, organism-based, Sprague-Dawley
# Parameters: regimen Daily Repeat, gender Male, age 6 weeks
# Conditions: in vivo, po, 100 mg/kg, route gavage, dose level Middle; for APTT / Bas / Eos / Fbg / Hb / Ht / Lym / MCH / MCHC / MCV / Mono / Neu / PT / Plat / RBC / Ret / WBC: tissue Blood; for KIDNEY_L / KIDNEY_R / KIDNEY_TOTAL: tissue Kidney; for LIVER: tissue Liver; for A/G / ALP / ALT / AST / BUN / CRE / Ca / Cl / DBIL / GLC / IP / K / LDH / Na / PL / RALB / TBIL / TC / TG / TP / gamma-GTP: tissue Plasma
compound,measurement,setting,value
Brc1ccccc1 [BROMOBENZENE],TERMINAL_BW,"72 h, time 3 day",207.5 g
same,APTT,"72 h, time 3 day",14.7 s
same,Bas,"72 h, time 3 day",0.2%
same,Eos,"72 h, time 3 day",1%
same,Fbg,"72 h, time 3 day",300.2 mg/dL
same,Hb,"72 h, time 3 day",12.9 g/dL
same,Ht,"72 h, time 3 day",38.4%
same,Lym,"72 h, time 3 day",74.2%
same,MCH,"72 h, time 3 day",20.5 pg
same,MCHC,"72 h, time 3 day",33.5%
same,MCV,"72 h, time 3 day",61.1 fL
same,Mono,"72 h, time 3 day",3.5%
same,Neu,"72 h, time 3 day",20.5%
same,PT,"72 h, time 3 day",11.8 s
same,Plat,"72 h, time 3 day",118.8 x10_4/uL
same,RBC,"72 h, time 3 day",629 x10_4/ul
same,Ret,"72 h, time 3 day",6.2%
same,WBC,"72 h, time 3 day",95.6 x10_2/uL
same,KIDNEY_L,"72 h, time 3 day",0.9 g
same,KIDNEY_R,"72 h, time 3 day",0.9 g
same,KIDNEY_TOTAL,"72 h, time 3 day",1.8 g
same,LIVER,"72 h, time 3 day",11.6 g
same,A/G,"72 h, time 3 day",0.9
same,ALP,"72 h, time 3 day",1811.5 IU/L
same,ALT,"72 h, time 3 day",56.5 IU/L
same,AST,"72 h, time 3 day",78.5 IU/L
same,BUN,"72 h, time 3 day",13 mg/dL
same,CRE,"72 h, time 3 day",0.2 mg/dL
same,Ca,"72 h, time 3 day",10.4 mg/dL
same,Cl,"72 h, time 3 day",106 meq/L
same,DBIL,"72 h, time 3 day",0.015 mg/dL
same,GLC,"72 h, time 3 day",179.8 mg/dL
same,IP,"72 h, time 3 day",6.4 mg/dL
same,K,"72 h, time 3 day",4.1 meq/L
same,LDH,"72 h, time 3 day",101.8 IU/L
same,Na,"72 h, time 3 day",142.2 meq/L
same,PL,"72 h, time 3 day",166.8 mg/dL
same,RALB,"72 h, time 3 day",2.7 g/dL
same,TBIL,"72 h, time 3 day",0.0575 mg/dL
same,TC,"72 h, time 3 day",88 mg/dL
same,TG,"72 h, time 3 day",66 mg/dL
same,TP,"72 h, time 3 day",5.7 g/dL
same,gamma-GTP,"72 h, time 3 day",1.2 IU/L
same,TERMINAL_BW,"[…], time 7 day",245.7 g
same,TERMINAL_BW,"[…], time 14 day",288.5 g
same,TERMINAL_BW,"[…], time 28 day",381.1 g
same,APTT,"[…], time 7 day",13.4 s
same,Bas,"[…], time 7 day",0%
same,Eos,"[…], time 7 day",1%
same,Fbg,"[…], time 7 day",317.4 mg/dL
same,Hb,"[…], time 7 day",13.3 g/dL
same,Ht,"[…], time 7 day",39.3%
same,Lym,"[…], time 7 day",75.8%
same,MCH,"[…], time 7 day",21.2 pg
same,MCHC,"[…], time 7 day",33.9%
same,MCV,"[…], time 7 day",62.5 fL
same,Mono,"[…], time 7 day",3%
same,Neu,"[…], time 7 day",19.8%
same,PT,"[…], time 7 day",12.2 s
same,Plat,"[…], time 7 day",112.7 x10_4/uL
same,RBC,"[…], time 7 day",629 x10_4/ul
same,Ret,"[…], time 7 day",6.9%
same,WBC,"[…], time 7 day",98.3 x10_2/uL
same,APTT,"[…], time 14 day",16.8 s
same,Bas,"[…], time 14 day",0%
same,Eos,"[…], time 14 day",1%
same,Fbg,"[…], time 14 day",326.4 mg/dL
same,Hb,"[…], time 14 day",14.2 g/dL
same,Ht,"[…], time 14 day",40.9%
same,Lym,"[…], time 14 day",78%
same,MCH,"[…], time 14 day",20.7 pg
same,MCHC,"[…], time 14 day",34.7%
same,MCV,"[…], time 14 day",59.8 fL
same,Mono,"[…], time 14 day",2.8%
same,Neu,"[…], time 14 day",18.2%
same,PT,"[…], time 14 day",11.9 s
same,Plat,"[…], time 14 day",113.2 x10_4/uL
same,RBC,"[…], time 14 day",685.4 x10_4/ul
same,Ret,"[…], time 14 day",4.6%
same,WBC,"[…], time 14 day",74.5 x10_2/uL
same,APTT,"[…], time 28 day",17.1 s
same,Bas,"[…], time 28 day",0%
same,Eos,"[…], time 28 day",1%
same,Fbg,"[…], time 28 day",304.8 mg/dL
same,Hb,"[…], time 28 day",14.6 g/dL
same,Ht,"[…], time 28 day",41.5%
same,Lym,"[…], time 28 day",73.8%
same,MCH,"[…], time 28 day",19.3 pg
same,MCHC,"[…], time 28 day",35.1%
same,MCV,"[…], time 28 day",55.1 fL
same,Mono,"[…], time 28 day",3%
same,Neu,"[…], time 28 day",21.2%
same,PT,"[…], time 28 day",12.9 s
same,Plat,"[…], time 28 day",109.2 x10_4/uL
same,RBC,"[…], time 28 day",754.6 x10_4/ul
same,Ret,"[…], time 28 day",2.6%
same,WBC,"[…], time 28 day",103.2 x10_2/uL
same,KIDNEY_L,"[…], time 7 day",1.1 g
same,KIDNEY_R,"[…], time 7 day",1.1 g
same,KIDNEY_TOTAL,"[…], time 7 day",2.2 g
same,KIDNEY_L,"[…], time 14 day",1.1 g
same,KIDNEY_R,"[…], time 14 day",1.1 g
same,KIDNEY_TOTAL,"[…], time 14 day",2.2 g
same,KIDNEY_L,"[…], time 28 day",1.4 g
same,KIDNEY_R,"[…], time 28 day",1.4 g
same,KIDNEY_TOTAL,"[…], time 28 day",2.7 g
same,LIVER,"[…], time 7 day",12.8 g
same,LIVER,"[…], time 14 day",13.7 g
same,LIVER,"[…], time 28 day",17 g
same,A/G,"[…], time 7 day",0.8
same,ALP,"[…], time 7 day",1614.4 IU/L
same,ALT,"[…], time 7 day",43.4 IU/L
same,AST,"[…], time 7 day",65 IU/L
same,BUN,"[…], time 7 day",14.8 mg/dL
same,CRE,"[…], time 7 day",0.2 mg/dL
same,Ca,"[…], time 7 day",11.1 mg/dL
same,Cl,"[…], time 7 day",105.2 meq/L
same,DBIL,"[…], time 7 day",0.014 mg/dL
same,GLC,"[…], time 7 day",193.2 mg/dL
same,IP,"[…], time 7 day",7.1 mg/dL
same,K,"[…], time 7 day",4 meq/L
same,LDH,"[…], time 7 day",99.8 IU/L
same,Na,"[…], time 7 day",143 meq/L
same,PL,"[…], time 7 day",149 mg/dL
same,RALB,"[…], time 7 day",2.7 g/dL
same,TBIL,"[…], time 7 day",0.048 mg/dL
same,TC,"[…], time 7 day",71.6 mg/dL
same,TG,"[…], time 7 day",84.8 mg/dL
same,TP,"[…], time 7 day",5.9 g/dL
same,gamma-GTP,"[…], time 7 day",1 IU/L
same,A/G,"[…], time 14 day",0.8
same,ALP,"[…], time 14 day",1557.8 IU/L
same,ALT,"[…], time 14 day",39.6 IU/L
same,AST,"[…], time 14 day",63.4 IU/L
same,BUN,"[…], time 14 day",14.6 mg/dL
same,CRE,"[…], time 14 day",0.2 mg/dL
same,Ca,"[…], time 14 day",10.9 mg/dL
same,Cl,"[…], time 14 day",107 meq/L
same,DBIL,"[…], time 14 day",0.008 mg/dL
same,GLC,"[…], time 14 day",185.6 mg/dL
same,IP,"[…], time 14 day",5.9 mg/dL
same,K,"[…], time 14 day",4 meq/L
same,LDH,"[…], time 14 day",56.6 IU/L
same,Na,"[…], time 14 day",143.6 meq/L
same,PL,"[…], time 14 day",150.4 mg/dL
same,RALB,"[…], time 14 day",2.8 g/dL
same,TBIL,"[…], time 14 day",0.046 mg/dL
same,TC,"[…], time 14 day",71.2 mg/dL
same,TG,"[…], time 14 day",100.6 mg/dL
same,TP,"[…], time 14 day",6.1 g/dL
same,gamma-GTP,"[…], time 14 day",1 IU/L
same,A/G,"[…], time 28 day",0.8
same,ALP,"[…], time 28 day",1105.2 IU/L
same,ALT,"[…], time 28 day",40.8 IU/L
same,AST,"[…], time 28 day",61.8 IU/L
same,BUN,"[…], time 28 day",15.4 mg/dL
same,CRE,"[…], time 28 day",0.3 mg/dL
same,Ca,"[…], time 28 day",10.6 mg/dL
same,Cl,"[…], time 28 day",105.6 meq/L
same,DBIL,"[…], time 28 day",0.016 mg/dL
same,GLC,"[…], time 28 day",198.8 mg/dL
same,IP,"[…], time 28 day",5.8 mg/dL
same,K,"[…], time 28 day",3.9 meq/L
same,LDH,"[…], time 28 day",86.2 IU/L
same,Na,"[…], time 28 day",142.4 meq/L
same,PL,"[…], time 28 day",140.8 mg/dL
same,RALB,"[…], time 28 day",2.8 g/dL
same,TBIL,"[…], time 28 day",0.04 mg/dL
same,TC,"[…], time 28 day",72.8 mg/dL
same,TG,"[…], time 28 day",108.8 mg/dL
same,TP,"[…], time 28 day",6.3 g/dL
same,gamma-GTP,"[…], time 28 day",1 IU/L
